Tests used:
DPPH antioxidant assay = type: biochemical
Method: The ability of the cannabinoids to act as potential antioxidants was assessed using the 2,2-diphenyl-1-picrylhydrazyl (DPPH) antioxidant assay. The cannabinoids CBDA, CBD, CBDVA, CBDV, CBG, THCV, and the 1:1 CBD:CBDA mixture had the highest antioxidant activities with radical scavenging activities of 38.19%, 48.00%, 43.81%, 44.21%, 44.28%, 45.71%, and 43.74%, respectively.
The 2,2-diphenyl-1-picrylhydrazyl (DPPH) free radical (Alfa Aesar) was prepared at 0.1 mM in ethanol. The cannabinoids were tested at a final concentration of 100 uM. 2 uL of 7.5 mM stock solutions of the cannabinoids to be tested in DMSO were added to 148 uL of 0.1 mM DPPH to achieve a final concentration of 100 μM in the assay. Ascorbic acid (Thermo Scientific) at a final concentration of 10 mg/ml was used as a positive control. The reaction mixture was incubated in the dark at room temperature for 1 hour, the absorbance of the mixture was read at 517 nm using a Spectra Max 5M microplate reader (Molecular Devices, LLC, Sunnyvale, Calif., USA) and the absorbance was converted to percent radical scavenging activity (% RSA) using the following formula: % RSA=[(Absorbance of the control−Absorbance of the sample)/(Absorbance of the control)]×100.
Free radical production occurs when the immune system is activated and antioxidants represent potential effective treatments for inflammatory conditions and autoimmune diseases. […] The DPPH antioxidant assay can be used to measure the ability of a compound to scavenge free radicals by measuring the ability of compounds to hydrogenate and reduce DPPH. The DPPH assay was conducted on CBCA, CBDA, CBDVA, CBGA, CBLA, CBNA, THCVA, and their decarboxylated derivatives as well as the 1:1 CBD:CBDA mixture.

[1] = tested on: differentiated U-937 cells; experiment: Human cellular U-937 autophagy induction assay (anti-LC3); type: cell-based; details: for activation at 1 µM: Homo sapiens, U-937, 12 h, read-out: Induction of autophagy with respect to the untreated control
Method: The induction of autophagy was monitored using anti-LC3 antibodies to detect LC3 on the autophagosome in human U-937 pro-monocytic histiocytic lymphoma cells (ATCC, Manassas, Va., USA), which generate morphologies characteristic of macrophages upon induction by various stimuli. U-937 cells were cultured in RPMI-1640 medium with L-glutamine and sodium bicarbonate (Sigma-Aldrich, St Louis, Mo.) supplemented with 10% fetal bovine serum (FBS) and 1% penicillin in 25 cm2 tissue flasks at 37° C. in a 5% CO2 humidified atmosphere and passaged every 2-3 days. U-937 cells were seeded in 96 well plates at 5×10^5 cells/mL and stimulated with 100 ng/mL PMA to induce differentiation for 24 hours. The cells were then treated with the various cannabinoids at 1.0 μM concentrations for 12 hours. 30 μM chloroquine was used as a positive control. After treatment, the cells were fixed using 3.7% formaldehyde in PBS for 15 minutes at room temperature and washed with PBS to remove the fixative. Permeabilization reagent (0.2% Triton X-100 in PBS) (Sigma-Aldrich) was added, the cells were incubated for 15 minutes at room temperature and then the cells were washed with PBS to remove the permeabilization reagent. LC3B rabbit polyclonal antibody (Invitrogen) was added at a final concentration of 0.5 μg/ml for 1 hour at room temperature and the cells were washed with PBS remove the primary antibody. Secondary conjugated goat anti-rabbit polyclonal antibody (Thermo Scientific) was then added at a final concentration of 2.0 μg/ml for 1 hour at room temperature. The cells were washed, Hoechst dye was added to stain the nucleus and the cells were imaged using an Arrayscan VTI high-content screening (HCS) reader (Thermo Scientific) with the appropriate filters and the data was analyzed using the vHCS Scan software.
Chloroquine at a concentration of 30 μM was included as a positive control. The ability to induce autophagy was determined as a percentage with respect to the untreated control.

[2] = tested on: cytokine levels in differentiated THP-1 cells treated with LPS; experiment: THP-1 human cellular LPS cytokine assay, three independent experiments, total averaged suppression; details: for inhibition at 2 µM: Homo sapiens, THP-1, 4 h, read-out: % Cytokine Suppression (total averaged)
Method: Cells were seeded onto 24-, or 12-well plates and incubated for 48 hours to 72 hours to allow for differentiation. […] Supernatants were collected for quantification of human cytokine levels to assess the cytokine response. Cells remaining after the supernatant collection were tested to ensure they had at least 90% viability as determined by Alamar Blue assays. To conduct the Alamar Blue assays, supernatants were replaced with culture medium containing 1× Alamar Blue reagent and incubated overnight. Cell viability was assessed by measuring relative fluorescent units (RFU) on the SpectraMax M2e microplate reader (Molecular Devices Inc., Sunnyvale, Calif., USA) at Excitation 560 nm and Emission 590 nm. Controls included untreated cells with DMSO at the same concentration as the treated cells, LPS stimulated cells with DMSO at the same concentration as the treated cells and LPS stimulated cell with the various treatments. The levels of 42 of the most common human cytokines (Eve Technologies, Calgary, Canada Table 6) were determined by multi-plex analysis.
For this reason, the level of cytokine suppression was determined for each cytokine by each cannabinoid that was tested and the total averaged suppression for each cannabinoid was determined by dividing the total suppression by the number of the cytokines that were analyzed.

SMILES | % RSA (radical scavenging activity) (DPPH antioxidant assay; 10 mg/ml, positive control) | Fluorescence (LC3) ([1]; 1.0 μM, 12 hours) | activation at 1 µM [1] | inhibition at 2 µM [2] | % RSA (radical scavenging activity) (DPPH antioxidant assay; 100 μM, 1 hour) | effectiveness at reducing elevated cytokine levels relative to dexamethasone [2] | radical scavenging activity compared to the untreated control (DPPH antioxidant assay; 100 μM) | Fluorescence (LC3) ([1]; 30 uM, positive control)
O=C1O[C@H]([C@@H](O)CO)C(O)=C1O [Ascorbic acid, reference compound] | 94.00% | – | – | – | – | – | – | –
CCCCCc1cc(O)c2c(c1)OC(C)(CCC=C(C)C)C=C2 (centres unmarked) [CBC, 2-Methyl-2-(4-methyl-3-penten-1-yl)-7-pentyl-2H-chromen-5-ol] | – | 47.84 | -0.85% | 22.6% | 31.95% | – | – | –
CCCCCc1cc2c(c(O)c1C(=O)O)C=CC(C)(CCC=C(C)C)O2 (centres unmarked) [CBCA, 5-Hydroxy-2-methyl-2-(4-methyl-3-penten-1-yl)-7-pentyl-2H-chromene-6-carboxylic acid] | – | 42.61 | -11.7% | 34.6% | 19.02% | at least half as effective as dexamethasone | – | –
C=C(C)C1CCC(C)=CC1c1c(O)cc(CCC)cc1O (centres unmarked) [CBDV, 2-(6-Isopropenyl-3-methyl-2-cyclohexen-1-yl)-5-propyl-1,3-benzenediol] | – | 38.19 | -20.9% | 36.7% | 44.21% | at least half as effective as dexamethasone | at least two-fold | –
C=C(C)[C@@H]1CCC(C)=C[C@H]1c1c(O)cc(CCC)c(C(=O)O)c1O [CBDVA, 2,4-Dihydroxy-3-[(1R,6R)-6-isopropenyl-3-methyl-2-cyclohexen-1-yl]-6-propylbenzoic acid] | – | 39.29 | -18.6% | 32.4% | 43.81% | at least half as effective as dexamethasone | at least two-fold | –
CCCCCc1cc(O)c(C/C=C(\C)CCC=C(C)C)c(O)c1 [CBG, 2-[(2E)-3,7-Dimethyl-2,6-octadien-1-yl]-5-pentyl-1,3-benzenediol] | – | 37.35 | -22.6% | 35.8% | 44.28% | at least half as effective as dexamethasone | at least two-fold | –
CCCCCc1cc(O)c(C/C=C(\C)CCC=C(C)C)c(O)c1C(=O)O [CBGA, 3-[(2E)-3,7-Dimethyl-2,6-octadien-1-yl]-2,4-dihydroxy-6-pentylbenzoic acid] | – | 37.47 | -22.3% | 34.3% | 26.84% | at least half as effective as dexamethasone | – | –
CCCCCc1cc(O)c2c(c1)OC1(C)CCC3C1C2C3(C)C (centres unmarked) [CBL, 1,1,3a-Trimethyl-6-pentyl-1a,2,3,3a,8b,8c-hexahydro-1H-4-oxabenzo[f]cyclobuta[cd]inden-8-ol] | – | 76.86 | 59.3% | 43.6% | 30.84% | at least half as effective as dexamethasone | – | –
CCCCCc1cc2c(c(O)c1C(=O)O)[C@@H]1[C@H]3[C@H](CC[C@@]3(C)O2)C1(C)C [CBLA, (1aS,3aR,8bR,8cR)-8-Hydroxy-1,1,3a-trimethyl-6-pentyl-1a,2,3,3a,8b,8c-hexahydro-1H-4-oxabenzo[f]cyclobuta[cd]indene-7-carboxylic acid] | – | 72.27 | 49.8% | 34.4% | 21.18% | at least half as effective as dexamethasone | – | –
CCN(CC)CCCC(C)Nc1ccnc2cc(Cl)ccc12 (centres unmarked) [Chloroquine, chloroquine, reference compound] | – | – | – | – | – | – | – | 111.20

Source: patent US12678451B2, “Cannabinoid and omega fatty acid compositions and methods of using” (GreenWay Herbal Products, LLC, priority 2019, dated 2026)
